Experimental data published in US10174015B2, “Substituted heterocyclic derivative, preparation method and use thereof” (Xiamen University, priority 2014, dated 2019).
Read-outs that look alike come from different tables or passages of the source.

Legend:
[1] = target: N-acylethanolamide hydrolyzing acid amidase (NAAA) (Rattus norvegicus, UniProt Q5KTC7); experiment: Endocannabinoid hydrolase activity: NAAA inhibition (17:1 FAE hydrolysis, LC-MS); type: biochemical
Method: The preparation method was as followed: a plasmid (pCDNA3.1/NAAA or pCDNA3.1/FAAH) carrying a whole NAAA/FAAH gene was constructed, wherein the plasmid carried Cytomegalovirus (CMV) promoter and Neomycin selectable gene; the plasmid was transformed into HEK-293 cell via lipid medium, stable cell lines expressing NAAA/FAAH at a high level were obtained by G418 screening and Western-blot method. HEK-293 recombinant cells were cultured and collected, washed with PBS for 2-3 times, and ultrasonically treated in 20 mM Tris-HCl containing 0.32 M sucrose, then repeatedly frozen and thawed twice, and then centrifuged at 4° C., 800 g for 15 min. The supernatant (i.e., the desired protein) was collected, the protein concentration was determined by BCA method, and the protein was diluted to a concentration of 1 mg/mL, and sub-packaged and stored in a refrigerator at −80° C. for further use.
The reaction was carried out at 37° C. for 10 min. 170 μL buffer (the buffer consisted of 50 mM disodium Hydrogen Phosphate, 0.1% Triton X-100, 3 mM DTT, 150 μL) containing enzymatic hydrolysis substrate (the substrate was a heptadecenoyl ethanolamine containing a double bond and 17 carbon atoms, abbreviated as 17:1 FAE) was further added, wherein the concentration of 17:1 FAE was 5 μM. The reaction was carried out at 37° C. for 30 min, and 200 μL methanol solution containing internal standard (the internal standard was margaric acid, at a concentration of 1 nmol) was then added to stop the reaction. LC-MS was used to determine the yield of the hydrolysate 17:1 FA (i.e., a heptadecenoic acid containing a double bond) of 17:1 FAE, then a graph was plotted with Graphpad Prism 5. Thereby, the IC50 of the test compound on endocannabinoid hydrolase was determined.

hERG potassium channel = hERG potassium channel (Homo sapiens (Human), UniProt Q12809); experiment: hERG potassium channel automated patch clamp in CHO-hERG cells
Chain of hERG potassium channel (Q12809 whole entry): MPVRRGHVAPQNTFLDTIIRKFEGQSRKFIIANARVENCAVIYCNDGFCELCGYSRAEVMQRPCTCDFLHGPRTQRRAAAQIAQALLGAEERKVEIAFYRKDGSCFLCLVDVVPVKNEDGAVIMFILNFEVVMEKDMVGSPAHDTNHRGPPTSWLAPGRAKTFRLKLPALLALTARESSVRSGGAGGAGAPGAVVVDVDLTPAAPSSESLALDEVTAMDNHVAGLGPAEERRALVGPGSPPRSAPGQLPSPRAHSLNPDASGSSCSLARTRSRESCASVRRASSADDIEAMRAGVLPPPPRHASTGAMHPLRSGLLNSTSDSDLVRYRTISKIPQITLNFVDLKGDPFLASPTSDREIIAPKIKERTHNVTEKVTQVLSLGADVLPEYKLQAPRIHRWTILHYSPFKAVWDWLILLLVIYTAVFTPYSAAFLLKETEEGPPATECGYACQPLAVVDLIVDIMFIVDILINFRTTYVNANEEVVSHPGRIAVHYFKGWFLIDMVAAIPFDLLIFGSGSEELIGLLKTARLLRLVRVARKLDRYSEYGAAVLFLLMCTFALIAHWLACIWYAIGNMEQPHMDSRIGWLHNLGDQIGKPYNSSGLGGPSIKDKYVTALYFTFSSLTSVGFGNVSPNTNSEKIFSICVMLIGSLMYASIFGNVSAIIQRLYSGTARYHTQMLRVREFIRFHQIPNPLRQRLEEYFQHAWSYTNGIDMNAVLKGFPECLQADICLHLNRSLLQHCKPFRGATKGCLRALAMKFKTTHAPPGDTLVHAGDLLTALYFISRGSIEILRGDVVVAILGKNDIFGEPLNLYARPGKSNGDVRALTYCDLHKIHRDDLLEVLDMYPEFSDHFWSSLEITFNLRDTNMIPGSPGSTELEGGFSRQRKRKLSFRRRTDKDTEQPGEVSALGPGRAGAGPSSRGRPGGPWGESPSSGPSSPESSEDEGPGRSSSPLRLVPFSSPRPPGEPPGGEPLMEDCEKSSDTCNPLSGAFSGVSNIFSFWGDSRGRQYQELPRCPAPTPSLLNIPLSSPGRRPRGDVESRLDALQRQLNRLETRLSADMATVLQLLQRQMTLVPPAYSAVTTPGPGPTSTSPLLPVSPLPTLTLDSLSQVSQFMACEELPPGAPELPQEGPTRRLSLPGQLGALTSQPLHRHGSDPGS
Method: CHO-hERG cells (purchased from ATCC) were incubated in a culture flask. When the cell density reached 60˜80%, the culture medium (Glutamax DMEM/F12 medium (Gibco, Shanghai) containing 10% fetal bovine serum) was removed. The cells were washed with 7 mL PBS once, and then digested by adding 3 mL Detachin cell dissociation buffer. After complete digestion, the resultant mixture was neutralized by adding 7 mL culture medium, and centrifuged. The supernatant was removed with a pipette, 5 mL culture medium was added to re-suspend the cells to ensure a cell density of 2˜5×10^6/mL.
Intracellular fluid and extracellular fluid were prepared as described in the following table.
A certain amount of compound was dissolved in […] at the following concentrations, to prepare the stock solution of compound. 2 μL stock solution of compound was added to 998 μL extracellular fluid, and was subjected to 5-fold serial dilution in extracellular fluid containing 0.2% DMSO to get the final concentrates to be tested.
Single cell giga-seal and formation of whole-cell mode were automatically performed by Sophion Qpatch HT fully automated cell patch clamp systems. After obtaining the whole-cell recording mode, the cell was clamped at −80 mV. The cell first underwent pre-voltage of −50 mV for 50 msec, then underwent depolarization stimulation at 20 mV for 5 sec, and then underwent repolarization at −50 mV for 5 sec, and then the voltage return to −80 mv. The cell underwent the stimulation at the voltage every 15 sec, and the data were recorded for 2 min, then extracellular fluid was administered, and then the data were recorded for 2 min. Then, the administration process begun. The concentration of a test compound started from the lowest concentration, each test concentration was administered for 2 min. […] At least three cells were tested for each concentration (n≥3). The experimental data was analyzed by XLFit software.

[2] = tested on: inflammatory abdominal pain caused by acetic acid; experiment: Abdominal inflammatory pain caused by acetic acid; type: in vivo, Kunming mice; conditions: mice, 10 mg/kg i.p. 1 h before acetic acid; indometacin 20 mg/kg (FIG. 4)
Method: (§1) In the Experimental example, compounds to be evaluated or compounds to be tested or test compounds used are the Compounds 1-46 prepared in the Examples according to the invention. In the Experimental example, all the agents for injection, including compounds to be evaluated or compounds to be tested or test compounds, and positive control drug, were dissolved in a mixed solvent of PEG400:Tween 80:normal saline (at a volume ratio of 5:5:90), at a concentration of 5 mg/mL.
Typical model for studying inflammation-induced visceral pain medically was used to evaluate the therapeutic effects of compounds on inflammatory visceral pain. The model can represent general visceral pain including, but not only limited to appendicitis, gastritis, pancreatitis, prostatitis, myocarditis, interstitial cystitis, pain caused by hepatic, gall or kidney stone, irritable bowel syndrome, and chronic pelvic pain syndrome.
Experimental Kunming mice (purchased by Xiamen University Laboratory Animal Center from Shanghai SLAC Laboratory Animal Co., Ltd) were in an experimental environment with free access to food and water for 1 week. The mice were fasted for 24 h before administration. The compound to be evaluated (10 mg/kg) was administered to the mice by intraperitoneal injection at 1 h before administration of acetic acid, wherein the positive control drug indometacin was administered at a dose of 20 mg/kg, and the blank control was normal saline. Acetic acid (50 μL, acetic acid dissolved in normal saline, at a concentration of 5%) was administered to the mice by intraperitoneal injection, and the mice were then placed in the observation cage. A video camera was used to record the behavior of the mice in the following 20 min. Pain-related behavior was analyzed statistically based on torsion times of the mice in said period.

SNI neuropathic pain = experiment: Neuropathic pain mouse model induced by spared nerve injury (SNI); type: in vivo, C57BL/6 mice; conditions: SNI mice, 10 mg/kg intraperitoneal, 1 h and 4 h after administration (FIGS. 1 and 2)
Method: as §1
Neuropathic pain mouse model induced by spared nerve injury (SNI) is a common animal model for studying neuropathic pain medically. The invention uses the model to evaluate the therapeutic effects of the compounds on neuropathic pain, wherein the model can represent peripheral neuropathic pain including, but not limited to post-herpetic neuralgia, pain caused by diabetic perineuropathy, neurothlipsis and exudation caused by tumor, lumbar surgery failure syndrome, neuropathic pain caused by lumbar disc protrusion, postpartum neuralgia, trigeminal neuralgia, chemotherapy-induced multiple neuropathic pain, post-radiotherapy plexopathy, and radicular neuralgia.
C57BL/6 mice (purchased from Shanghai SLAC Laboratory Animal Co., Ltd) were anesthetized by intraperitoneal injection with pentobarbital sodium (40 mg/kg), and skin from knee joint to gluteal region was subjected to skin preparation and disinfection. After the mice were fixed, the knee joint part was cut about 1 cm longitudinally with bistoury, and muscle tissues were separated by blunt dissection to expose sciatic nerve. The tibial and common peroneal nerve branches of sciatic nerve stem were cut off carefully, and the cut was then stitched up. The mice was placed in a clean observation cage. In the sham-operation group, only sciatic nerve was exposed without cutting the tibial and common peroneal nerve branches. From the day before the experiment to 24 h after the operation, the plantar edges of the mice were stimulated everyday by […] (Ugo Basile Company (Italy), Product ID: 37450), and data was collected automatically to obtain the threshold value of mice to mechanical stimulation. […] The positive control drug gabapentin was administered at a dose of 100 mg/kg. All the agents to be injected were dissolved in a mixed solvent of PEG400:Tween 80:normal saline (at a volume ratio of 5:5:90), at a concentration of 5 mg/mL. By comparing the threshold values (the acting force of when the mouse retracting the paw) at different administration time in different administration groups, the compound was evaluated for its analgesic effect on neuropathic pain.

[3] = tested on: headache caused by nitroglycerin; experiment: Nitroglycerin-induced headache rat model; type: in vivo, Wistar rats; conditions: rats, 10 mg/kg i.p. 1 h before nitroglycerin (FIG. 5)
Method: as §1
Nitroglycerin-induced headache rat model was a common model for studying inflammatory pain medically. The model was used in the invention to evaluate the therapeutic effects of the compounds on headache. The model can represent mixed pain including, but not only limited to: migraine, cluster headache, tension headache syndrome, prosopodynia, lumbodynia, shoulder pain, burning mouth syndrome, and complex regional pain syndrome.
Experimental Wistar rats with a body weight of about 250 g for each (purchased from Shanghai SLAC Laboratory Animal Co., Ltd) were in an experimental environment with free access to food and water for 1 week. The rats were fasted for 24 h before administration. The compound to be evaluated (10 mg/kg) was intraperitoneally injected to the rat at 1 h before the administration of nitroglycerin, wherein the positive control drug was indomethacin and the blank control was normal saline. Nitroglycerin (10 mg/kg, nitroglycerin dissolved in normal saline, at a concentration of 5%) was injected at epidermis of the rat neck, and the rats were then placed in the observation cage. A video camera was used to record the behavior of the rats in the following 60 min. Pain-related behavior was analyzed statistically based on the times that the rat scratched its head in said period.

[4] = Assay on drug metabolism in rat; type: in vivo, SD rats; conditions: SD, plasma, iv, 30 mg/Kg via jugular vein
Description: 50 SD rats (purchased from Shanghai SLAC Laboratory Animal Co., Ltd) were divided into 5 groups randomly, 10 rats per group. After anesthesia with ether, rat was fixed on the operating table on its back, and was shaved at the operative site of neck. After disinfection with 75% alcohol, the neck was cut about 1.5 cm longitudinally, muscle tissues and nervi vascularis surrounding trachea were separated by blunt dissection, and carotid artery was separated by blunt dissection. Ligation was performed at distal end, an artery clamp was used at proximal part, and the distance between them was about 1 cm. A small cut was made with a pair of ophthalmic scissors at proximal part close to the ligated site, and arterial duct was introduced from the small cut to the proximal part, the artery clamp was loosened, the arterial ostium was clamped with smooth forceps, whilst the arterial duct was delivered to heart ventricle. Upon the introduction of the arterial duct into heart ventricle, the blood vessel was ligated. By using the same intubation method for artery, intubation was applied to jugular veins. After intubation, a tubule filled with heparin sodium was drawn out from artery and vein, which passed through the skin under the ear of the rat and drawn out from the dorsal part skin of the neck of the rat, and the tubule was fixed well. The muscles and skin were sutured at the surgical site of the rat, and normal saline containing heparin sodium was injected from time to time via the tubule connecting the artery and the vein to prevent tubule obstruction due to blood coagulation. The rat was placed in a warm and clean cage provided with water and food, waiting for the rat to wake up naturally.
After the rat regained consciousness and acted normally, assay on metabolic stability of compounds was performed in the rat. All the agents to be injected (including compounds to be tested and control drug) were dissolved in a mixed solvent of PEG400:Tween 80:normal saline (at a volume ratio of 5:5:90), at a concentration of 5 mg/mL. The agent was injected slowly at a dose of 30 mg/Kg via the tubule drawn out from the jugular vein. After administration, the time was recorded, and blood was collected from the tubule drawn out from carotid artery at 2, 5, 10, 20, 30, 60, 240, 360, and 720 min, in an amount of 200 μL for each time. The whole blood was placed in commercially available heparin sodium blood-collecting tube (Jiangxi Jingzhi Medical Equipment Co., Ltd.), centrifuged at 1800 g for 15 min. To the supernatant plasma, 150 μL pre-cooled methanol stopping buffer (containing internal standard E8, 1 nmol/sample) was added, vertically mixed well, and then centrifuged at 4° C., 12000 g for 10 min. The supernatant was transferred to a sample vial, the target compound was detected by LC-MS/MS, and the content of the compound was calculated by virtue of standard curve.

[5] = Stability assay in rat plasma; type: in vitro ADME; conditions: 37° C.
Method: To each of several tubes sub-packaged with rat plasma, PBS solution was added in a volume equal to a quarter of plasma volume, and the resultant mixture was mixed well. […] At different time points (0, 10, 30, 60, 120, 240, 360, 720, 1440 min), 50 μL plasma sample was taken and added to 150 μL precooled methanol (containing the internal standard compound E8, with a structure of
[drawing 117] and a name of 1-(2-Biphenyl-4-yl)ethyl-carbonyl pyrrolidine, 1 nmol/sample), wherein three parallel samples were prepared for each time point. The samples were then vertically mixed well, and centrifuged at 4° C., 12000 g for 10 min. The supernatant was transferred to a sample vial. LC-MS/MS was used to measure the peak area at different time points, Analyst® version 1.4.1. software was used to analyze chromatographic peak, and the content of the target compound was calculated by virtue of the standard curve.

[6] = Stability assays at acidic and basic conditions; type: physicochemical
Method: The sample containing the compound to be tested was then incubated in a constant temperature shaker at 37° C. At different time points (0 min, 10 min, 30 min, 1 h, 2 h, 4 h, 6 h, 12 h, 24 h), 50 μL sample was taken and added to 150 μL precooled methanol (containing the internal standard E8, 1 nmol/sample), wherein three parallel samples were prepared for each time point. The samples were then vertically mixed well, and transferred to a sample vial. LC-MS/MS was used to measure the peak area at different time points, Analyst® version 1.4.1. software was used to analyze chromatographic peak, and the content of the target compound was calculated based on the standard curve.

NAAA = NAAA inhibitor, literature value; cited from earlier work
[7] = tested on: inflammatory pain induced by carrageenan and neuropathic pain caused by sciatic nerve ligation; conditions: cited from earlier work
[8] = PBS pH 5.0, 37° C., read-out: Half-life pH 5.0
[9] = PBS pH 7.4, 37° C., read-out: Half-life pH 7.4

Chain of N-acylethanolamide hydrolyzing acid amidase (NAAA) (Q5KTC7 34-130 limits assumed): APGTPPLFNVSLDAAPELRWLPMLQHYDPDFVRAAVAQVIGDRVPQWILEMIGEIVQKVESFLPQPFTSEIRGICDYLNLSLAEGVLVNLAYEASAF
Chain of N-acylethanolamide hydrolyzing acid amidase (NAAA) (Q5KTC7 131-362 limits assumed): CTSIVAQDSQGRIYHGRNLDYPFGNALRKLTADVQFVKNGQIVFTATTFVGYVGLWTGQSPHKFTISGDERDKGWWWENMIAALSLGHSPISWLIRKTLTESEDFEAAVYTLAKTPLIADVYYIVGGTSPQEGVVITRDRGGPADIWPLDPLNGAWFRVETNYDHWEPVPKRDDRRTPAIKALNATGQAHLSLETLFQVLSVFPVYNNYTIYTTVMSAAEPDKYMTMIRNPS

IC50 [1] [µM]	half-life [4] [h]	half-life at 2 μM [5] [h]	half-life at 1 μM [6, 8] [h]	half-life at 1 μM [6, 9] [h]	Structure (SMILES)	further results
0.35	–	–	–	–	Cc1cccc(CCCCCC(=O)N2CCOC2=O)c1 [Compound 32, 3-Methylphenylhexanoyl Oxazolidinone]	–
–	–	–	–	–	O=C(CCCCCC1CCCNC1)N1CCOC1=O (centres unmarked) [Compound 34, Piperidin-3-yl-hexanoyl Oxazolidinone]	IC50 (hERG potassium channel): > 40 µM
–	–	–	–	–	N[C@H]1CC(=O)N(C(=O)CCCCCc2ccccc2)C1 [Compound 30]	effect of inhibiting abdominal inflammatory pain [2]: did not exhibit any effect of inhibiting abdominal inflammatory pain; effect of inhibiting central neuropathic pain (SNI neuropathic pain): did not exhibit any effect of inhibiting central neuropathic pain; effect of inhibiting nitroglycerin-induced headache [3]: did not exhibit any effect of inhibiting headache in rats
0.68	2.92	5.33	> 24	> 24	O=C1OCCN1C(=O)c1ccc(Oc2ccccc2)cc1 [Compound 41, 4-Phenoxybenzoyl Oxazolidinone]	–
–	–	–	–	–	O=C1OCCN1C(=O)C1CCC(Cc2ccccc2)CC1 (centres unmarked) [Compound 24, 4-Benzylcyclohexanoyl Oxazolidinone]	effect of inhibiting abdominal inflammatory pain [2]: did not exhibit any effect of inhibiting abdominal inflammatory pain; effect of inhibiting central neuropathic pain (SNI neuropathic pain): did not exhibit any effect of inhibiting central neuropathic pain; effect of inhibiting nitroglycerin-induced headache [3]: did not exhibit any effect of inhibiting headache in rats
–	1.55	2.75	> 24	> 24	O=C(CCCCCc1cccc(F)c1)N1CCOC1=O [Compound 8, 3-Fluorophenylhexanoyl Oxazolidinone]	–
0.44	–	–	–	–	Cc1ccc(CCCCCC(=O)N2CCOC2=O)cc1 [Compound 33, 4-Methylphenylhexanoyl Oxazolidinone]	–
–	1.23	2.2	> 24	> 24	O=C(CCCCCc1ccc(O)cc1)N1CCOC1=O [Compound 31, 4-Hydroxyphenylhexanoyl Oxazolidinone]	–
–	–	–	–	–	C[C@@H]1OC(=O)[C@@H]1NC(=O)OCCCCCc1ccccc1 [ARN077]	IC50 (NAAA): 0.127 µM; analgesic effects on allodynia compared with gabapentin ([7]; sciatic nerve ligation, ARN077 1%, 20 μL, epidermal, gabapentin 50 mg/kg oral): better analgesic effects on allodynia than the positive control agent gabapentin; effect on inflammatory and neuropathic pain ([7]; topical administration): significantly inhibit inflammatory pain induced by carrageenan and neuropathic pain caused by sciatic nerve ligation
–	3.07	4.45	> 24	> 24	CC(=O)C[C@@H]1COC(=O)N1C(=O)CCCCCc1cccc(C)c1 [Compound 11]	–
